Read-outs that look alike come from different tables or passages of the source.
Columns and labels:
[1] = tested on: cholesterol-induced atherosclerosis; settings: cited from earlier work
[2] = Rapamycin delivery in isolated porcine carotid artery (LC-MS/MS of tissue and washings); type: in vitro ADME
Experimental: Sirolimus/Rapamycin was analyzed using an LC-MS/MS system consisting of an Agilent 1290 (San Jose, CA, USA) coupled to electrospray ionization on a triple quadrupole mass spectrometer (Agilent 6460, San Jose, CA, USA) equipped with a turbo ion spray interface in negative ionization mode, and an Agilent LC 1200 Binary pump system (Agilent Technologies, Santa Clara, CA, USA). Ascomycin was used as an internal standard (IS). A Gemini 5 μm NX-C18 110 Å, LC Column polar-RP 80A column (50×2 mm, Phenomenex, Torrance, CA, USA) equipped with a Security Guard™ column (4.0 mm×3.0 mm) was utilized to optimally separate sirolimus and the internal standard from endogenous substances of porcine carotid artery. The mobile phase was a mixture of 20 mM ammonium acetate (A) and methanol (B). Sample separation was conducted using a flow rate of 0.2 mL/min and a 10-min gradient condition (0-1 min: 20% B, 1-6 min: 100% B, 6-7 min: 100% B, 7.1-10 min: 20% B). The injection volume was […] for calibration and carotid artery samples. The selected reaction monitoring transitions of m/z 912.5→371.2 and m/z 790.5→530.3 were applied for sirolimus and IS, respectively. Mass data were acquired using Analyst software version 1.5.2 (Applied Biosystems-SCIEX, Concord, ON, Canada). Data analysis was processed using SCIEX OS offline software version 1.6 (Applied Biosystems-SCIEX, Concord, ON, Canada).
Sirolimus/Rapamycin was dissolved in acetonitrile to prepare a stock solution (1 mg/mL) and including IS with 2 ng/μL and were gradually diluted by the serial dilution method using calibrated pipettes (2-20 μL, 10-100 μL and 100-1000 μL), in order to obtain working stock dilutions at decreasing concentrations ([…]). These solutions were used for the preparation of mass spectrometry optimization, calibration curve and quality control standards in DMSO and carotid artery homogenates. These stock solutions and stock dilutions were stored at −20° C., respectively.
Sirolimus/Rapamycin was dissolved in DMSO to prepare a final concentration of 100 mg/mL (stock solution) and stored at −80° C. The porcine carotid arteries were washed 5 times in PBS (1×) to remove all the blood and fluids, followed by cutting them into 40 mm length. The surface area (SA) of the artery was calculated to be 628 mm^2 (lateral SAcylinder=2πrh; π=3.14, r=2.5 mm, and h=40 mm). The Rapamycin solution was diluted in DMSO to prepare […] (2 μg/mm^2). One of the carotid arteries was tied at one end and then it was filled with 0.5 mL of Rapamycin solution ([Rapamycin]0=628 μg/mL) then the open end was tied. After a 5-minute treatment, the solution was drained out, then arteries were washed with 5×0.2 mL of PBS (1×) which was also collected for the analysis. A similar experiment was performed as a biological duplicate. The arteries and the washings were then analyzed for the presence of Sirolimus/Rapamycin for determining the amount that was absorbed by the tissues compared to the amount that was washed out for use as a model.
Treated and untreated porcine carotid artery segments (100 mg, 2 mm) were shredded in methanol with a surgical blade and transferred to a 2 ml tube with a total volume of 1 ml methanol and 100 μL of internal standard (1 ng/ml). This tube contained garnet beads/shards for homogenizing tissue. Then a Qiagen Tissue Lyser LT was used to beat the artery shreds at 50 Hz for 10 minutes. The supernatant was dried down completely under a gentle stream of nitrogen using a nitrogen evaporator. The samples were resuspended in 100 μL of DMSO and placed in inserted universal autosampler vials prior to analysis.

[3] = Stability and solubility of rapamycin in DMSO and DMSO/saline; type: physicochemical; settings: in DMSO at −20° C.
Description: The rapamycin solution in DMSO could be further diluted either in saline, PBS, or distilled water.
The best working solution is considered to be 50/50 DMSO/water i.e., 50% of the DMSO in solution. This could be envisioned valid if instead of saline blood is used.

[4] = set-up: species or system Yorkshire swine; settings: female, Yorkshire, pig, in vivo
Experimental: Formulations: Two Different Formulations were Prepared: • 1. […] Sirolimus was encapsulated in gelatin nanoparticles (GNP).
An incision of 5-8 cm was made alongside the femoral (or carotid) artery, and surrounding muscle and perivascular fascia were bluntly dissected to expose the artery.
The HPLC facility isolated the paclitaxel in usual manner and sirolimus was isolated with an addition step of enzymatic digesting of the GNP with trypsin at 37° C. before the analysis of each of them by Liquid Chromatography with tandem mass spectrometry (LC-MS-MS). • 1. Paclitaxel on day 1 in both the arteries with the final concentration of 12 ng/g in the first artery and 5.2 ng/g in second artery was detected by LC-MS/MS. The solution that was evacuated after 5 min of the formulation in the test site was evaluated by LC-MS/MS to detect 15% (75 mg) of the initial concentration of injected paclitaxel solution. […] Only few nanograms were detected in 24 h and that could indicate that probably 100% DMSO as a carrier took away the paclitaxel from the site to other region of the leg muscles that were not evaluated.

C[S+](C)[O-] [DMSO, dimethyl sulfoxide]
Food intake of rabbits on the atherogenic diet [1]: not suppressed | Inhibition of aortic lesions ([1]; rabbits on atherogenic diet, 2% (dose, 1.5 g/kg) DMSO): about 50% | Aortic lesions ([1]; rabbits on atherogenic diet, 4 (3.5 g/kg), 5 (5.5 g/kg) and 6% (9.1 g/kg) DMSO): virtually absent in the majority of rabbits

CO[C@H]1C[C@@H]2CC[C@@H](C)[C@@](O)(O2)C(=O)C(=O)N2CCCC[C@H]2C(=O)O[C@H]([C@H](C)C[C@@H]2CC[C@@H](O)[C@H](OC)C2)CC(=O)[C@H](C)/C=C(\C)[C@@H](O)[C@@H](OC)C(=O)[C@H](C)C[C@H](C)/C=C/C=C/C=C/1C [Rapamycin]
% of total drug in 2 mm of artery ([2]; 5-minute treatment, rapamycin in DMSO): 30.13% | % of total drug in washings (40 mm of artery) ([2]; PBS washings after 5-minute treatment): 0.5% | Delivery efficiency ([2]; Total Dose 220 ug): 99.55% | Lost in Blood stream (washed out) ([2]; Total Dose 220 ug): 1 µg | Remaining in tissue ([2]; Total Dose 220 ug): 68.75 µg | Remaining in tissue, % of the dose ([2]; Total Dose 220 ug): 30.13 % of the dose | Stability of rapamycin in DMSO [3]: many months

CC(=O)O[C@H]1C(=O)[C@@]2(C)[C@H]([C@H](OC(=O)c3ccccc3)[C@]3(O)C[C@H](OC(=O)[C@H](O)[C@@H](NC(=O)c4ccccc4)c4ccccc4)C(C)=C1C3(C)C)[C@]1(OC(C)=O)CO[C@@H]1C[C@@H]2O [Paclitaxel]
Adverse reaction (edema) (day 7 animal): no edema was observed | Adverse reaction (edema) (day 14 animal): Same lack of reaction was observed | Findings around the site of delivery when sutures were opened (in vivo): a lot of dead tissues and blood clots | Adverse reaction on injected leg (edema) (t=24 h animal): severe edema | Drug in solution evacuated after 5 min, % of the initial concentration [4]: 15% | Drug in solution evacuated after 5 min, amount [4]: 75 mg | Absorbed by the tissue, % ([4]; 5 min): 85% | Absorbed by the tissue, amount ([4]; 5 min): 425 mg

Source: US20250073014A1, “METHODS, DEVICES AND SYSTEMS FOR TREATING NEOINTIMAL GROWTH” (priority 2022, published 2025)
